Laboratory results taken from patent publication EP4650353A1 (Shanghai Institute of Materia Medica, Chinese Academy of …, priority 2023, dated 2024).

Target: T1, human GLP-1 receptor (Homo sapiens, UniProt P43220)
T1 construct: HA (N); expressed in transfected cells
Assay: GLP-1 receptor-mediated agonist activity: cAMP level in hGLP-1R/HEK293 cell line (HTRF)
Assay type: cell-based
Details: cAMP levels in hGLP-1R/HEK293 cell line; Table 1; read-out: determined EC50

T1 sequence (P43220 24-463): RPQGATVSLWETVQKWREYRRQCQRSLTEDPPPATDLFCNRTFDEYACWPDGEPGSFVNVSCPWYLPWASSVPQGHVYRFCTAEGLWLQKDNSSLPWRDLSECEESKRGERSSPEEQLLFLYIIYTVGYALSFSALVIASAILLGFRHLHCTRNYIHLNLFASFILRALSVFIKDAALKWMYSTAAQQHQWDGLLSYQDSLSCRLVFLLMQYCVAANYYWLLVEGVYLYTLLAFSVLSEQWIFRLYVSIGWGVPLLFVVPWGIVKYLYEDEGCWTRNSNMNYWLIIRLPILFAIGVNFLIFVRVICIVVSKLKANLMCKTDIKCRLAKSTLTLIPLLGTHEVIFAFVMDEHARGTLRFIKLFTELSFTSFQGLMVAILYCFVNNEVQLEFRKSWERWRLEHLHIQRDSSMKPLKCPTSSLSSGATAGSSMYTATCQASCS

Row | Structure (SMILES) | EC50 [pM]
1 | COc1cc(C#N)ccc1COc1ncccc1C1CCN(Cc2nc3c(OC)cc(C(=O)O)cc3n2C[C@@H]2CCO2)CC1 [Compound 34, (S)-2-((4-(2-((4-cyano-2-methoxybenzyl)oxy)pyridin-3-yl)piperidin-1-yl)methyl)-4-methoxy-1-(oxetan-2-ylmethyl)-1H-benzo[d]imidazole-6-carboxylic acid] | 3.3
2 | COc1cc(C(=O)O)cc2c1nc(CN1CCC(c3cccnc3OCc3ccc(C#N)c4c3OCC4)CC1)n2C[C@@H]1CCO1 [Compound 35, (S)-2-((4-(2-((4-cyano-2,3-dihydrobenzofuran-7-yl)methoxy)pyridin-3-yl)piperidin-1-yl)methyl)-4-methoxy-1-(oxetan-2-ylmethyl)-1H-benzo[d]imidazole-6-carboxylic acid] | 8.2
3 | COc1cc(C(=O)O)cc2c1nc(CN1CCC(c3cccc4c3OC(C)(c3ccc(Cl)cc3F)O4)CC1)n2C[C@@H]1CCO1 (stereo partly drawn) [Compound 36, 2-((4-(2-(4-chloro-2-fluorophenyl)-2-methylbenzo[d][1,3]dioxol-4-yl)piperidin-1-yl)methyl)-4-methoxy-1-(((S)-oxetan-2-yl)methyl)-1H-benzo[d]imidazole-6-carboxylic acid] | 8.3
4 | CCOc1cc(C(=O)O)cc2c1nc(CN1CCC(c3cccc4c3OC(C)(c3ccc(Cl)cc3F)O4)CC1)n2C[C@@H]1CCO1 (stereo partly drawn) [Compound 37, 2-((4-(2-(4-chloro-2-fluorophenyl)-2-methylbenzo[d][1,3]dioxol-4-yl)piperidin-1-yl)methyl)-4-ethoxy-1-(((S)-oxetan-2-yl)methyl)-1H-benzo[d]imidazole-6-carboxylic acid] | 6.7
5 | COc1cc(C(=O)O)cc2c1nc(CN1CCC(c3cccc4c3OC(C)(c3ccc(Cl)cn3)O4)CC1)n2C[C@@H]1CCO1 (stereo partly drawn) [Compound 38, 2-((4-(2-(5-chloropyridin-2-yl)-2-methylbenzo[d][1,3]dioxol-4-yl)piperidin-1-yl)methyl)-4-methoxy-1-(((S)-oxetan-2-yl)methyl)-1H-benzo[d]imidazole-6-carboxylic acid] | 22.9
6 | CCOc1cc(C(=O)O)cc2c1nc(CN1CCC(c3cccc4c3OC(C)(c3ccc(Cl)cn3)O4)CC1)n2C[C@@H]1CCO1 (stereo partly drawn) [Compound 39, 2-((4-(2-(5-chloropyridin-2-yl)-2-methylbenzo[d][1,3]dioxol-4-yl)piperidin-1-yl)methyl)-4-ethoxy-1-(((S)-oxetan-2-yl)methyl)-1H-benzo[d]imidazole-6-carboxylic acid] | 8
7 | COc1cc(C(=O)O)cc2c1nc(CN1CCN(c3cccc4c3OC(C)(c3ccc(Cl)cc3F)O4)CC1)n2C[C@@H]1CCO1 (stereo partly drawn) [Compound 40, 2-((4-(2-(4-chloro-2-fluorophenyl)-2-methylbenzo[d][1,3]dioxol-4-yl)piperazin-1-yl)methyl)-4-methoxy-1-(((S)-oxetan-2-yl)methyl)-1H-benzo[d]imidazole-6-carboxylic acid] | 11.1
8 | COc1cc(C#N)ccc1COc1cccc(C2CCN(Cc3nc4c(OC)cc(C(=O)O)cc4n3C[C@@H]3CCO3)CC2)c1 [Compound 42, (S)-2-((4-(3-((4-cyano-2-methoxybenzyl)oxy)phenyl)piperidin-1-yl)methyl)-4-methoxy-1-(oxetan-2-ylmethyl)-1H-benzo[d]imidazole-6-carboxylic acid] | 29.8
9 | COc1cc(C(=O)O)cc2c1nc(CN1CCC(c3cccc(OCc4ccc(C#N)c5c4OCC5)c3)CC1)n2C[C@@H]1CCO1 [Compound 43, (S)-2-((4-(3-((4-cyano-2,3-dihydrobenzofuran-7-yl)methoxy)phenyl)piperidin-1-yl)methyl)-4-methoxy-1-(oxetan-2-ylmethyl)-1H-benzo[d]imidazole-6-carboxylic acid] | 34.2
10 | COc1cc(C#N)ccc1COc1ccccc1C1CCN(Cc2nc3c(OC)cc(C(=O)O)cc3n2C[C@@H]2CCO2)CC1 [Compound 44, (S)-2-((4-(2-((4-cyano-2-methoxybenzyl)oxy)phenyl)piperidin-1-yl)methyl)-4-methoxy-1-(oxetan-2-ylmethyl)-1H-benzo[d]imidazole-6-carboxylic acid] | 9.5
11 | COc1cc(C(=O)O)cc2c1nc(CN1CCC(c3ccccc3OCc3ccc(Cl)c4c3OCC4)CC1)n2C[C@@H]1CCO1 [Compound 45, (S)-2-((4-(2-((4-chloro-2,3-dihydrobenzofuran-7-yl)methoxy)phenyl)piperidin-1-yl)methyl)-4-methoxy-1-(oxetan-2-ylmethyl)-1H-benzo[d]imidazole-6-carboxylic acid] | 50.9
12 | COc1cc(C(=O)O)cc2c1nc(CN1CCC(c3ccccc3OCc3ccc(C#N)c4c3OCC4)CC1)n2C[C@@H]1CCO1 [Compound 46, (S)-2-((4-(2-((4-cyano-2,3-dihydrobenzofuran-7-yl)methoxy)phenyl)piperidin-1-yl)methyl)-4-methoxy-1-(oxetan-2-ylmethyl)-1H-benzo[d]imidazole-6-carboxylic acid] | 42.2
13 | COc1cc(C(=O)O)cc2c1nc(CN1CCC(c3ccccc3OCc3ccc(C#N)cc3F)CC1)n2C[C@@H]1CCO1 [Compound 47, (S)-2-((4-(2-((4-cyano-2-fluorobenzyl)oxy)phenyl)piperidin-1-yl)methyl)-4-methoxy-1-(oxetan-2-ylmethyl)-1H-benzo[d]imidazole-6-carboxylic acid] | 61.3
14 | COc1cc(C(=O)O)cc2c1nc(CN1CCC(c3ccccc3OCc3ccc(Cl)cc3F)CC1)n2C[C@@H]1CCO1 [Compound 48, (S)-2-((4-(2-((4-chloro-2-fluorobenzyl)oxy)phenyl)piperidin-1-yl)methyl)-4-methoxy-1-(oxetan-2-ylmethyl)-1H-benzo[d]imidazole-6-carboxylic acid] | 43.4
15 | COc1cc(C(F)(F)F)ccc1COc1cccc(C2CCN(Cc3nc4c(OC)cc(C(=O)O)cc4n3C[C@@H]3CCO3)CC2)n1 [Compound 51, (S)-4-methoxy-2-((4-(6-((2-methoxy-4-(trifluoromethyl)benzyl)oxy)pyridin-2-yl)piperidin-1-yl)methyl)-1-(oxetan-2-ylmethyl)-1H-benzo[d]imidazole-6-carboxylic acid] | 1.6
16 | CCOc1cc(C(=O)O)cc2c1nc(CN1CCC(c3cccc(OCc4ccc(C(F)(F)F)cc4OC)n3)CC1)n2C[C@@H]1CCO1 [Compound 52, (S)-4-ethoxy-2-((4-(6-((2-methoxy-4-(trifluoromethyl)benzyl)oxy)pyridin-2-yl)piperidin-1-yl)methyl)-1-(oxetan-2-ylmethyl)-1H-benzo[d]imidazole-6-carboxylic acid] | 1.2
17 | COc1cc(C(=O)O)cc2c1nc(CN1CCC(c3cccc4c3OC(C)(c3ccc(C(F)(F)F)cc3F)O4)CC1)n2C[C@@H]1CCO1 (stereo partly drawn) [Compound 53, 2-((4-(2-(2-fluoro-4-(trifluoromethyl)phenyl)-2-methylbenzo[d][1,3]dioxol-4-yl)piperidin-1-yl)methyl)-4-methoxy-1-(((S)-oxetan-2-yl)methyl)-1H-benzo[d]imidazole-6-carboxylic acid] | 9.3
18 | CCOc1cc(C(=O)O)cc2c1nc(CN1CCC(c3cccc4c3OC(C)(c3ccc(C(F)(F)F)cc3F)O4)CC1)n2C[C@@H]1CCO1 (stereo partly drawn) [Compound 54, 4-ethoxy-2-((4-(2-(2-fluoro-4-(trifluoromethyl)phenyl)-2-methylbenzo[d][1,3]dioxol-4-yl)piperidin-1-yl)methyl)-1-(((S)-oxetan-2-yl)methyl)-1H-benzo[d]imidazole-6-carboxylic acid] | 7.7
